Data: paper PMC9953703, “Bacterial Quorum-Sensing Peptides as Immune Modulators Present in Systemic Circulation” (Biomolecules, 2023)
Residues, ends and D or L forms follow the SMILES beside them.

Key:
[1] = in vitro; conditions: human plasma (500 µL) in Krebs-Henseleit buffer pH 7.4, 100 µg peptide, 37 °C shaking, 0, 30 and 120 min, UPLC-PDA, first-order kinetics; for half-life: human, plasma, pH 7.4, Plasma Half-Life
Protocol: In vitro chemical and metabolic stability of Q007, Q010, Q017 and Q212 was determined in cell medium and human plasma, respectively, using previously described procedures. In brief, 100 µg of peptide was incubated in Krebs–Henseleit buffer pH 7.4 with cell medium/plasma (500 µL) at 37 °C while shaking. At predetermined time intervals (i.e., 0, 6 and 24 h for cell medium; 0, 30 and 120 min for plasma), aliquots were immediately transferred into microtubes containing 1:1 volume of 1% (v/v) trifluoroacetic acid solution in water. The enzyme reaction was further stopped by heating the solution at 95 °C for 5 min. Next, the samples were centrifuged to precipitate the denatured proteins and the supernatant analysed using UPLC-PDA (Waters, Milford, MA, USA). Appropriate placebo solutions were similarly prepared. Assuming first-order kinetics, the rate constant k was obtained from ln(Pt/Pt0) = −kt, from which the half-life was determined as T1/2 = ln(2)/k.

[2] = tested on: human red blood cells; conditions: human RBC, 1 μM QSP, 1 h, 37 °C
Protocol: In vitro haemolysis of Q007, Q010, Q017 and Q212 was determined using previously described procedures. Briefly, freshly obtained human blood was centrifuged and the precipitate washed using freshly prepared 150 mM NaCl solution. After the final centrifugation step, the precipitate was resuspended into 100 mM sodium phosphate buffer pH 7.4. A 1 to 10 RBC solution was incubated for 1 h at 37 °C with QSP at a concentration of 1 μM. The absorbance of the supernatant was measured at 405 nm and corrected for the blank absorbance. The percent haemolysis was then calculated using the following equation: [(Asample − Ablank)/(Apositive control − Ablank)] × 100, with 1% (v/v) Triton X-100 being the positive control.

[3] = in vitro; conditions: human, Caco-2
Protocol: Caco-2 permeability tests were performed as described by Wynendaele et al. [7], based on the protocol of Hubatsch et al. [14]. Briefly, Caco-2 cells were seeded on 12-well polycarbonate membrane filters (0.4 μm pore size, Corning, Teltow, Germany) and left for differentiation during 21–29 days. […] Samples were quantitatively analysed using UPLC-MS/MS. Four independent biological replicates were used (different days and well-plates), with each between 3 and 6 technical replicates (i.e., different wells on one plate/in one day).

| SMILES | Plasma Half-Life [1] [h] | half-life [1] [min] | haemolysis-inducing effect [2] | Papp A→B at 30 min [3] [×10⁻⁶ cm/s] |
| --- | --- | --- | --- | --- |
| C[C@@H](O)[C@H](NC(=O)[C@H](Cc1c[nH]c2ccccc12)NC(=O)[C@@H]1CCCN1C(=O)[C@H](CO)NC(=O)[C@@H](N)Cc1ccc(O)cc1)C(=O)N[C@@H](CC(N)=O)C(=O)N[C@@H](Cc1ccccc1)C(N)=O [Q007, RNAIII Inhibiting Peptide (RIP)] (H-YSPWTNF-NH2) | 2.2 | 120 | did not induce haemolysis | – |
| CC(C)C[C@H](NC(=O)[C@H](CC(=O)O)NC(=O)[C@H](C)N)C(=O)N1CCC[C@H]1C(=O)N[C@@H](Cc1ccccc1)C(=O)N[C@@H](CCC(=O)O)C(=O)N[C@@H](Cc1ccccc1)C(=O)O [Q010, PapR7I] (H-ADLPFEF-OH) | 9.2 | 540 | lack of haemolysis-inducing effects | 0.0129 |
| CC[C@H](C)[C@H](NC(=O)[C@H](CC(C)C)NC(=O)[C@H](C)N)C(=O)N[C@@H](CC(C)C)C(=O)N[C@H](C(=O)N[C@@H](CC(C)C)C(=O)N[C@H](C(=O)N[C@@H](CO)C(=O)O)C(C)C)[C@@H](C)O [Q017, iPD1] (H-ALILTLVS-OH) | – | 150 | – | – |
| CC(C)[C@H](N)C(=O)N1CCC[C@H]1C(=O)N[C@@H](Cc1ccccc1)C(=O)N[C@@H](CCC(=O)O)C(=O)N[C@@H](Cc1ccccc1)C(=O)O [Q212, PapR5III] (H-VPFEF-OH) | – | 12 | – | – |
